≈ marks a conversion by molar mass, not a printed value.

The test system of one assay is RAW264.7. Description: Antiinflammatory activity in mouse RAW264.7 cells assessed as inhibition of LPS-induced nitric oxide production. The format is functional, cell-based.
Conditions: not given
With `CC[C@H](CC[C@@H](C)[C@H]1CC[C@H]2[C@@H]3C[C@H](O)C4=CC(=O)CC[C@]4(C)[C@H]3CC[C@]12C)C(C)C`, the half-inhibitory concentration (IC50) (usually the concentration needed to halve the response being measured) was 86.7 µM.
Turning to `CC[C@H](CC[C@@H](C)[C@H]1CC[C@H]2[C@@H]3CC=C4C[C@@H](O[C@@H]5O[C@H](CO)[C@@H](O)[C@H](O)[C@H]5O)CC[C@]4(C)[C@H]3CC[C@]12C)C(C)C` [SITOGLUSIDE], the half-maximal inhibitory concentration (IC50) worked out at 77.4 µM.
As for `C=C(C)C(O)Cc1c(-c2ccc(O)cc2O)oc2c(CC=C(C)C)c(O)cc(O)c2c1=O` (stereo unspecified), the IC50 came to 7.3 µg/mL.
Same read-out and setting: the value for `O=C1CC(c2ccc(O)cc2O)Oc2cc(O)ccc21` (stereo unspecified) was 10.3 µg/mL.
The same measure, in the same setting: the figure for `CC(C)=CCc1c(-c2ccc(O)cc2O)oc2cc(O)cc(O)c2c1=O` [ALBANIN A] is 9.2 µg/mL.
Turning to `O=C1CC(c2ccc(O)cc2O)Oc2cc(O)cc(O)c21` (stereo unspecified) [STEPPOGENIN], the IC50 came out at 12.1 µg/mL.
Still for that read-out and setting: the value for `CC(C)[C@@H](C)/C=C/[C@@H](C)[C@H]1CC[C@@H]2[C@]1(C)CC[C@H]1[C@]23C=C[C@]2(C[C@@H](O)CC[C@]12C)OO3` [ERGOSTEROL PEROXIDE] was 28.7 µM; that for `C=C(C)C(O)Cc1c(O)cc(O)c2c(=O)c(CC=C(C)C)c(-c3ccc(O)cc3O)oc12` (stereo unspecified) was 6.6 µg/mL.
On the same count and under the same terms, the value for `CC(C)=CCc1c(-c2ccc(O)cc2O)oc2c(CC=C(C)C)c(O)cc(O)c2c1=O` [KUWANON C] was 9.6 µg/mL.
Same read-out and setting: the value for `COc1cc(/C=C/C(=O)O[C@H]2CC[C@]3(C)[C@H]4CC=C5[C@@H]6CC(C)(C)CC[C@]6(C(=O)O)CC[C@@]5(C)[C@]4(C)CC[C@H]3C2(C)C)ccc1O` was 54.1 µM.
In the case of `CC(C)=CCC/C(C)=C/Cc1c(O)cc2oc(-c3ccc(O)cc3)cc(=O)c2c1O`, the IC50 came out at 4.1 µg/mL.
As for `CC(C)=CCc1c(O)ccc(C(=O)[C@H]2[C@@H](c3cc(O)cc4oc(-c5ccc(O)cc5O)cc34)C=C(C)C[C@@H]2c2ccc(O)cc2O)c1O`, the half-maximal inhibitory concentration (IC50) came to 12.8 µg/mL.
The same measure, in the same setting: the value for `O=c1cc(-c2ccc(O)cc2O)oc2cc(O)cc(O)c12` [NORARTOCARPETIN] was 6.1 µg/mL.
For `CC[C@H](CC[C@@H](C)[C@H]1CC[C@H]2[C@@H]3CCC4=CC(=O)CC[C@]4(C)[C@H]3CC[C@]12C)C(C)C`, the concentration for half-maximal inhibition (IC50) is 15.9 µM.
On the same count and under the same terms, the value for `C=C(C)C(=O)Cc1c(-c2ccc(O)cc2O)oc2c(CC=C(C)C)c(O)cc(O)c2c1=O` was 4.3 µg/mL; that for `CC(C)=CCc1c(O)ccc(C(=O)/C=C/c2ccc(O)cc2)c1O` [ISOBAVACHALCONE] was 3.5 µg/mL.
Same read-out and setting: the value for `CC(C)=CCC1C(=O)c2c(O)cc3c(c2OC1c1ccc(O)cc1O)C=CC(C)(CO)O3` (stereo unspecified) was 5.2 µg/mL; that for `CC(C)=CCc1c(-c2ccc(O)cc2O)oc2cc3c(c(O)c2c1=O)CC(C(C)(C)O)O3` (stereo unspecified) was 2.2 µg/mL.
Same read-out and setting: the figure for `C=C(C)[C@@H]1CC[C@]2(C(=O)O)CC[C@]3(C)[C@H](CC[C@@H]4[C@@]5(C)CC[C@H](O)C(C)(C)[C@@H]5CC[C@]43C)[C@@H]12` [BETULINIC ACID] is 42.5 µM; for `CC(C)=CCC1C(=O)c2c(O)cc3c(c2OC1c1ccc(O)cc1O)C=CC(C)(C)O3` (stereo unspecified) it is 5.3 µg/mL; for `CC(C)=CCc1c(-c2ccc(O)cc2O)oc2cc3c(c(O)c2c1=O)C=CC(C)(C)O3` [CUDRAFLAVONE B] it is 7.4 µg/mL.

For a further assay, the target named is T1, Prostaglandin G/H synthase 2 (Homo sapiens, UniProt P35354).
T1 sequence (P35354 whole entry): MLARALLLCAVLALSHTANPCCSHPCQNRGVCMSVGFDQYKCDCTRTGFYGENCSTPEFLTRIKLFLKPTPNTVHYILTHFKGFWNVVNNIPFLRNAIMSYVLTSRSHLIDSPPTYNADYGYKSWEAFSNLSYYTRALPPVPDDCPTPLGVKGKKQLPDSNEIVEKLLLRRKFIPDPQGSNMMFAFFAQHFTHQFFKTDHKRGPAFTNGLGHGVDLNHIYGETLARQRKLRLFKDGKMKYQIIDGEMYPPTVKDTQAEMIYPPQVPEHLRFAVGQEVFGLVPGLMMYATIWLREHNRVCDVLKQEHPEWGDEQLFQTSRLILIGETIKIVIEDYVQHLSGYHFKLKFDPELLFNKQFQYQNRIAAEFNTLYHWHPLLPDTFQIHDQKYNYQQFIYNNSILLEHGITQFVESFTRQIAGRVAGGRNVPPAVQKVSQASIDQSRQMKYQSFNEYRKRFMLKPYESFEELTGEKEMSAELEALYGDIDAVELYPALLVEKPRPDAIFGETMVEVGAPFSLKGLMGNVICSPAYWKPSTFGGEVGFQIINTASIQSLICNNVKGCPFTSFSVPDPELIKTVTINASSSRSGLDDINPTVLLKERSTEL
Description: Inhibition of COX2 (unknown origin).
Conditions: not given
The compound `C=C(C)[C@@H]1CC[C@]2(C)CC[C@]3(C)[C@H](CCC4[C@@]5(C)[C@H](O)C[C@H](OC(C)=O)C(C)(C)[C@@H]5CC[C@]43C)[C@@H]12` (stereo partly specified) gave an IC50 of 540 µM.

In the next assay the target is T2, Prostaglandin G/H synthase 2 (Homo sapiens) (UniProt P35354).
T2 sequence (whole entry): T1 sequence (P35354 whole entry)
Description: Inhibition of human COX2 at 10 uM using arachidonic acid as substrate measured for 300 secs intervals from 3 to 10 secs in presence of hematin by fluorescence assay relative to control.
Conditions: not given
As for `COc1cc(O)cc2c1C(=O)C(Cc1ccc(O)cc1)CO2` (stereo unspecified), the inhibition – broadly, the relative decrease from the control value, in per cent – was found to be 73.8%.
Same read-out and setting: the figure for `COc1cc(OC(C)=O)c2c(c1)O[C@H](OC(C)=O)[C@]1(Cc3cc4c(cc31)COC4)C2=O` is 89%; for `O=C1c2c(O)cc(O)cc2OCC1Cc1ccc(O)cc1` (stereo unspecified) it is 13.3%.
With `COc1cc(OC)c(C(=O)/C=C/c2ccc(O)cc2)c(OC)c1`, the inhibition worked out at 62.2%.
Still for that read-out and setting: the value for `COc1cc(OC(C)=O)c2c(c1)O[C@H](OC(C)=O)[C@@]1(Cc3cc4c(cc31)COC4)C2=O` was 20.9%; that for `COc1ccc(CC2COc3cc(O)cc(O)c3C2=O)cc1` (stereo unspecified) was 20.9%; that for `COc1cc(O)c2c(c1)OCC1(Cc3c1cc(OC)c(OC)c3O)C2=O` (stereo unspecified) was 101%.
The same measure, in the same setting: the figure for `COc1cc(OC)c(C(=O)CCc2ccc(O)cc2)c(OC)c1` is 54.4%; for `COc1ccc(CC2(O)COc3cc(O)cc(O)c3C2=O)cc1` (stereo unspecified) it is 71.4%.

A further assay addresses T3, Prostaglandin G/H synthase 2 (Ovis aries, UniProt P79208).
T3 sequence (P79208 whole entry): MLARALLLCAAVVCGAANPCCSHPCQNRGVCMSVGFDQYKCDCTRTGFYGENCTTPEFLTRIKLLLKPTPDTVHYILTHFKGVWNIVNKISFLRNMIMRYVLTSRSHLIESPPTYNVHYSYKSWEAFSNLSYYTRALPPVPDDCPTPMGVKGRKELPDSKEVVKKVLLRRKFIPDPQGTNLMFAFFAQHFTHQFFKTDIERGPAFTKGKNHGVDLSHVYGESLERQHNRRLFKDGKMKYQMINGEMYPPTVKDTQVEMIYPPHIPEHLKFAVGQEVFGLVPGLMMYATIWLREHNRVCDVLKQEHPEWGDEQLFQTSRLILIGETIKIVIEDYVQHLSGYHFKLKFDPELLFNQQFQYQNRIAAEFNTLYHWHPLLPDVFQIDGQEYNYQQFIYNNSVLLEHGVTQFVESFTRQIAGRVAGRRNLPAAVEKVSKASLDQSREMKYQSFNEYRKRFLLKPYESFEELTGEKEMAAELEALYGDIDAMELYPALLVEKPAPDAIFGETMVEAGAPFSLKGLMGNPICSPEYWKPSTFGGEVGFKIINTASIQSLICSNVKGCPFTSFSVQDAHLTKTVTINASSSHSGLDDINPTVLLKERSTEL
Description: Inhibition of recombinant ovine COX2 using arachidonic acid as substrate preincubated for 15 mins followed by arachidonic acid addition measured after 2 mins by ELISA.
Conditions: not given
On the technique in general: In an ELISA, binding on a coated surface is turned into a signal by an enzyme label.
Take `CC(=O)OC[C@H]1O[C@@H](OCCc2ccc(O)c(O)c2)[C@H](O)[C@@H](O[C@@H]2O[C@@H](C)[C@H](O)[C@@H](O)[C@H]2O)[C@@H]1OC(=O)/C=C/c1ccc(O)c(O)c1`: the IC50 came to 9.4 µM.
The same measure, in the same setting: the value for `C[C@@H]1O[C@@H](O[C@@H]2[C@@H](O)[C@H](OCCc3ccc(O)c(O)c3)O[C@H](CO)[C@H]2OC(=O)/C=C/c2ccc(O)c(O)c2)[C@H](O)[C@H](O)[C@H]1O` [ACETOSIDE] was 11.3 µM; that for `C[C@@H]1O[C@@H](O[C@@H]2[C@@H](O)[C@H](OCCc3ccc(O)c(O)c3)O[C@H](CO)[C@H]2OC(=O)/C=C/c2ccc(O)c(O)c2)[C@H](O)[C@H](O[C@@H]2OC[C@](O)(CO)[C@H]2O)[C@H]1O` was 21.5 µM.
On the same count and under the same terms, the figure for `CC(=O)OC[C@H]1O[C@@H](OCCc2ccc(O)c(O)c2)[C@H](O)[C@@H](O[C@@H]2O[C@@H](C)[C@H](O)[C@@H](O[C@@H]3OC[C@](O)(CO)[C@H]3O)[C@H]2O)[C@@H]1OC(=O)/C=C/c1ccc(O)c(O)c1` is 19.6 µM; for `C[C@@H]1O[C@@H](O[C@@H]2[C@@H](O[C@@H]3OC[C@](O)(CO)[C@H]3O)[C@H](OCCc3ccc(O)c(O)c3)O[C@H](CO)[C@H]2OC(=O)/C=C/c2ccc(O)c(O)c2)[C@H](O)[C@H](O)[C@H]1O` it is 18.2 µM.
`O=C(OC[C@@]1(O)CO[C@@H](O[C@H]2[C@H](Oc3ccc(O)c(O)c3)O[C@H](CO)[C@@H](O)[C@@H]2O)[C@@H]1O)c1ccc(O)c(O)c1`: the IC50 was found to be 24.7 µM.
The same measure, in the same setting: the value for `CC(=O)OC[C@H]1O[C@@H](OCCc2ccc(O)c(O)c2)[C@H](O[C@@H]2OC[C@](O)(CO)[C@H]2O)[C@@H](O[C@@H]2O[C@@H](C)[C@H](O)[C@@H](O)[C@H]2O)[C@@H]1OC(=O)/C=C/c1ccc(O)c(O)c1` was 16 µM.
On the same count and under the same terms, the figure for `C[C@@H]1O[C@@H](O[C@@H]2[C@@H](O)[C@H](OCCc3ccc(O)cc3)O[C@H](CO)[C@H]2OC(=O)/C=C/c2ccc(O)c(O)c2)[C@H](O)[C@H](O[C@@H]2OC[C@](O)(CO)[C@H]2O)[C@H]1O` is 36 µM.
Same read-out and setting: the figure for `COc1cc(O[C@@H]2O[C@H](CO)[C@@H](O)[C@H](O)[C@H]2O[C@@H]2OC[C@](O)(COC(=O)c3ccc(O)c(O)c3)[C@H]2O)ccc1O` is 29.2 µM.

The next assay relates to RAW264.7. Description: Antiinflammatory activity in mouse RAW264.7 cells assessed as inhibition of LPS-induced nitric oxide production after 24 hrs by Griess reagent based assay. It counts as functional, cell-based. Conditions: RAW264.7, 24 h. A general note: Griess reagent forms a coloured azo dye with nitrite.
Take `O=C(/C=C/c1ccc(O)cc1O)c1ccc(O)cc1O`: the 50% inhibitory concentration (IC50) is 10.2 µg/mL (≈ 37.5 µM).
The same measure, in the same setting: the figure for `Oc1ccc(/C=C/c2cc(O)cc(O)c2)cc1` [RESVERATROL] is 24.1 µg/mL (≈ 106 µM); for `CC(C)=CCc1c(O)ccc(C(=O)/C=C/c2ccc(O)c([C@H]3C=C(C)CC(c4ccc(O)cc4O)[C@H]3C(=O)c3ccc(O)cc3O)c2O)c1O` (stereo partly specified) it is 8.5 µg/mL (≈ 12.5 µM).
On the same count and under the same terms, the figure for `O=C(/C=C/c1ccc(O)cc1)c1ccc(O)cc1O` [ISOLIQUIRITIGENIN] is 3.4 µg/mL (≈ 13.3 µM); for `CC1=CCc2ccc3cc(-c4cc(O)cc(O)c4)oc3c2OC1` it is 19.8 µg/mL (≈ 64.2 µM).
The same measure, in the same setting: the value for `COc1c(-c2ccc(O)c(O)c2)oc2cc(O)cc(O)c2c1=O` [3-O-METHYLQUERCETIN] was 3.5 µg/mL (≈ 11.1 µM); that for `C=C(C)[C@H](O)CC/C(C)=C/Cc1c(O)cc2oc(-c3ccc(O)cc3)cc(=O)c2c1O` was 3.5 µg/mL (≈ 8.28 µM).
On to `CC1(C)C=Cc2c(cc(O)cc2-c2cc3ccc(O)cc3o2)O1`, for which the half-maximal inhibitory concentration (IC50) worked out at 18.5 µg/mL (≈ 60 µM).
On the same count and under the same terms, the figure for `COc1cc(O)cc(-c2cc3cc(O)c(OC)cc3o2)c1` is 7.9 µg/mL (≈ 27.6 µM).
Same read-out and setting: the value for `COc1cc(O)cc(-c2cc3ccc(O)cc3o2)c1C/C=C(\C)CCC=C(C)C` was 5.3 µg/mL (≈ 13.5 µM); that for `COc1cc(O)cc(-c2cc3cc(OC)c(O)cc3o2)c1` was 7.5 µg/mL (≈ 26.2 µM).

The values above are taken from ChEMBL document CHEMBL4406802, “Human disorders associated with inflammation and the evolving role of natural products to overcome” (Eur J Med Chem, 2019).
